The numbers were not newly measured in paper PMC9516332 (Frontiers in Oncology, 2022), which cites them from elsewhere.

Where two headings read alike, the source gives them in different places.

The target of data set [1] is panel of 255 wild-type kinases (Homo sapiens, UniProt O00311). As to conditions: CDC7/ASK kinase assay, 1 µmol/L single concentration, cited from earlier work.
Data set [2] relates to panel of 255 wild-type kinases. As to conditions: 1 µmol/L single concentration, cited from earlier work; for %-inhibition at 1 µmol/L, LYNb: kinase LYNb; for %-inhibition at 1 µmol/L, PKCβ2: kinase PKCβ2; for %-inhibition at 1 µmol/L, SRM: kinase SRM; for %-inhibition at 1 µmol/L, FYN [isoform b]: kinase FYN [isoform b].
In data set [3] the target is panel of 255 wild-type kinases (Homo sapiens, UniProt Q15375). To be noted: kinase EPHA7, 1 µmol/L single concentration, cited from earlier work.
The target in data set [4] is T1, panel of 255 wild-type kinases (Homo sapiens, UniProt Q16566).
T1 sequence (Q16566 1-473): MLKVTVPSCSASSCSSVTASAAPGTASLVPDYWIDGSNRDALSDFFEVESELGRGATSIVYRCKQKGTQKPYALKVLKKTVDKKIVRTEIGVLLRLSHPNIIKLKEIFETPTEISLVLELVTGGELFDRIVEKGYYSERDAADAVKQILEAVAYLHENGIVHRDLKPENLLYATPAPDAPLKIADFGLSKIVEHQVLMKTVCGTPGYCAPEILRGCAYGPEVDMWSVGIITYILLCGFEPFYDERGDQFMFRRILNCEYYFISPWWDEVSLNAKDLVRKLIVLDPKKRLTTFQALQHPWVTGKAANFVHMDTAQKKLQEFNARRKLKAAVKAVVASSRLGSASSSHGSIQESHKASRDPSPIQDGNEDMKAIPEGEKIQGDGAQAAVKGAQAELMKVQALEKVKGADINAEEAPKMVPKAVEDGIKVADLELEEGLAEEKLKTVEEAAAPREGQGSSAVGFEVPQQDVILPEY
To be noted: CaMK4 kinase assay, 1 µmol/L single concentration, cited from earlier work.

Data set [5] concerns the target panel of 255 wild-type kinases (Homo sapiens, UniProt Q13153). As to conditions: PAK1, 1 µmol/L single concentration, cited from earlier work.
For data set [6], the target named is panel of 255 wild-type kinases (Homo sapiens, UniProt P08581). To be noted: MET, 1 µmol/L single concentration, cited from earlier work.
Data set [7] has as its target panel of 255 wild-type kinases (Homo sapiens, UniProt P06241). To be noted: kinase FYN [isoform a], 1 µmol/L single concentration, cited from earlier work.
Data set [8] concerns the target panel of 255 wild-type kinases (Homo sapiens, UniProt P31751). As to conditions: AKT2 kinase assay, 1 µmol/L single concentration, cited from earlier work.
Data set [9] deals with panel of 255 wild-type kinases (Homo sapiens, UniProt P51451). To be noted: BLK kinase assay, 1 µmol/L single concentration, cited from earlier work.
In data set [10] the target is T2, panel of 255 wild-type kinases (Homo sapiens, UniProt Q13188).
T2 sequence (Q13188 1-491): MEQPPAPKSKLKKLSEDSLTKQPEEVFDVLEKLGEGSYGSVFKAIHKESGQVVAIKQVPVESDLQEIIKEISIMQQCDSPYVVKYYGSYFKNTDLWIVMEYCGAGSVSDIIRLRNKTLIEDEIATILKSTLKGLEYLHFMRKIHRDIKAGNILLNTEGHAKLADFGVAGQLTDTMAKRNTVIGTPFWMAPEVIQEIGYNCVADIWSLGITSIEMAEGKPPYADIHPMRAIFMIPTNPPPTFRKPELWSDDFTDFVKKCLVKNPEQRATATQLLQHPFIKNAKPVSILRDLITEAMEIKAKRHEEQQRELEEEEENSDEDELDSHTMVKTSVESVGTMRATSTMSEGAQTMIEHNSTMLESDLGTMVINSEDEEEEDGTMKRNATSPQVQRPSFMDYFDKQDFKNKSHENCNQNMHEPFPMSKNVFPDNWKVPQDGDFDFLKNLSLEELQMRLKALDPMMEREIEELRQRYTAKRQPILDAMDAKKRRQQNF
To be noted: MST2, 1 µmol/L single concentration, cited from earlier work.

Data set [11] addresses panel of 255 wild-type kinases (Homo sapiens, UniProt Q9Y243). To be noted: AKT3 kinase assay, 1 µmol/L single concentration, cited from earlier work.
Data set [12] deals with panel of 255 wild-type kinases (Homo sapiens, UniProt P49137). As to conditions: kinase MAPKAPK2, 1 µmol/L single concentration, cited from earlier work.
Data set [13] concerns the target panel of 255 wild-type kinases (Homo sapiens, UniProt P41240). To be noted: kinase CSK, 1 µmol/L single concentration, cited from earlier work.
Data set [14] deals with panel of 255 wild-type kinases (Homo sapiens, UniProt Q15418). To be noted: kinase RSK1, 1 µmol/L single concentration, cited from earlier work.
Data set [15] addresses panel of 255 wild-type kinases (Homo sapiens, UniProt P06493). To be noted: CDC2/CycB1 kinase assay, 1 µmol/L single concentration, cited from earlier work.
The mark [16] stands for this setting: ref DOI: 10.1371/journal.pone.0092146.
The mark [17] stands for this setting: ref DOI: 10.1158/1535-7163.MCT-18-0877.

For `CC(=O)Nc1cccc(-n2c(=O)n(C3CC3)c(=O)c3c(Nc4ccc(I)cc4F)n(C)c(=O)c(C)c32)c1` [trametinib], in [1] (setting [16]), the “%-inhibition CDC7/ASK” value was -8%. For the same compound, in data set [2] (setting [16]), the “%-inhibition at 1 µmol/L, LYNb” value is on record as -2.58%; the “%-inhibition at 1 µmol/L, PKCβ2” value is on record as -1.58%; the “%-inhibition at 1 µmol/L, SRM” value was -4%. The “%-inhibition at 1 µmol/L, EPHA7” value in [3] (setting [16]) is -5%. In data set [4] (setting [16]), the “%-inhibition CaMK4” value was -5.45%. Also, the “%-inhibition, PAK1” value in [5] (setting [16]) was -1.35%. The “%-inhibition, MET” value in data set [6] (setting [16]) is recorded as -2.41%. For the same compound, the “%-inhibition at 1 µmol/L, FYN [isoform a]” value (shortened to “%-inhibition … [isoform a]”) in data set [7] (setting [16]) was 9%. Further, in [8] (setting [16]), the “%-inhibition AKT2” value is given as -8%. In data set [9] (setting [16]), the “%-inhibition BLK” value is listed as -2.79%. In data set [10] (setting [16]), the “%-inhibition, MST2” value was -3%. Also, the “%-inhibition AKT3” value in [11] (setting [16]) is on record as -5.3%. Besides, the “%-inhibition at 1 µmol/L, MAPKAPK2” value in data set [12] (setting [16]) is recorded as -0.335%. In addition, the “%-inhibition at 1 µmol/L, CSK” value in [13] (setting [16]) is on record as -2.83%. The “%-inhibition at 1 µmol/L, RSK1” value in [14] (setting [16]) is recorded as -10%. The “%-inhibition CDC2/CycB1” value in data set [15] (setting [16]) is 8%.

As to `Cc1cc(Nc2ncc(Cl)c(Nc3ccccc3S(=O)(=O)C(C)C)n2)c(OC(C)C)cc1C1CCNCC1` [ceritinib], the “%-inhibition CDC7/ASK” value in data set [1] (setting [17]) is recorded as -2.74%. Also, in data set [2] (setting [17]), the “%-inhibition at 1 µmol/L, FYN [isoform b]” value is reported as -4%; the “%-inhibition at 1 µmol/L, LYNb” value was 11%; the “%-inhibition at 1 µmol/L, PKCβ2” value is 4%; the “%-inhibition at 1 µmol/L, SRM” value was 40%. Also, in data set [3] (setting [17]), the “%-inhibition at 1 µmol/L, EPHA7” value is given as 4.64%. Further, the “%-inhibition CaMK4” value in data set [4] (setting [17]) is recorded as 30%. In [5] (setting [17]), the “%-inhibition, PAK1” value was 7.58%. For the same compound, the “%-inhibition, MET” value in data set [6] (setting [17]) was 16%. In addition, in data set [7] (setting [17]), the “%-inhibition … [isoform a]” value was 4%. The “%-inhibition AKT2” value in data set [8] (setting [17]) is listed as -4.7%. The “%-inhibition BLK” value in [9] (setting [17]) is 2%. Further, the “%-inhibition, MST2” value in data set [10] (setting [17]) is on record as 2.76%. Also, the “%-inhibition AKT3” value in data set [11] (setting [17]) is recorded as -4%. For the same compound, the “%-inhibition at 1 µmol/L, MAPKAPK2” value in [12] (setting [17]) was -14%. The “%-inhibition at 1 µmol/L, CSK” value in data set [13] (setting [17]) is on record as 3%. For the same compound, the “%-inhibition at 1 µmol/L, RSK1” value in [14] (setting [17]) was 75%. Further, in data set [15] (setting [17]), the “%-inhibition CDC2/CycB1” value is 2.5%.

Take `CCCS(=O)(=O)Nc1ccc(F)c(C(=O)c2c[nH]c3ncc(-c4ccc(Cl)cc4)cc23)c1F` [vemurafenib]: in [1] (setting [16]), the “%-inhibition CDC7/ASK” value is -7%. In [2] (setting [16]), the “%-inhibition at 1 µmol/L, LYNb” value is reported as 62%; the “%-inhibition at 1 µmol/L, PKCβ2” value is -3%; the “%-inhibition at 1 µmol/L, SRM” value was 102%. In addition, in [3] (setting [16]), the “%-inhibition at 1 µmol/L, EPHA7” value is -0.639%. Moreover, in data set [4] (setting [16]), the “%-inhibition CaMK4” value is on record as -2.38%. Further, the “%-inhibition, PAK1” value in data set [5] (setting [16]) was -5%. Further, the “%-inhibition, MET” value in data set [6] (setting [16]) is 3.67%. In addition, the “%-inhibition … [isoform a]” value in [7] (setting [16]) is reported as 81%. The “%-inhibition AKT2” value in [8] (setting [16]) is -3%. For the same compound, the “%-inhibition BLK” value in data set [9] (setting [16]) is 52%. The “%-inhibition, MST2” value in [10] (setting [16]) is listed as 24%. For the same compound, the “%-inhibition AKT3” value in [11] (setting [16]) is -0.678%. In addition, the “%-inhibition at 1 µmol/L, MAPKAPK2” value in [12] (setting [16]) is reported as -16%. In [13] (setting [16]), the “%-inhibition at 1 µmol/L, CSK” value was 76%. For the same compound, the “%-inhibition at 1 µmol/L, RSK1” value in [14] (setting [16]) was -1.32%. The “%-inhibition CDC2/CycB1” value in [15] (setting [16]) is listed as 10%.

Take `O=C(c1ccc(F)c(F)c1Nc1ccc(I)cc1F)N1CC(O)([C@@H]2CCCCN2)C1` [cobimetinib]: in data set [1] (setting [17]), the “%-inhibition CDC7/ASK” value is listed as 5%. Moreover, in [2] (setting [17]), the “%-inhibition at 1 µmol/L, FYN [isoform b]” value is -0.687%; the “%-inhibition at 1 µmol/L, LYNb” value is 8%; the “%-inhibition at 1 µmol/L, PKCβ2” value is -2%; the “%-inhibition at 1 µmol/L, SRM” value was 1.37%. In [3] (setting [17]), the “%-inhibition at 1 µmol/L, EPHA7” value is listed as 1.75%. Besides, the “%-inhibition CaMK4” value in data set [4] (setting [17]) is 2%. For the same compound, the “%-inhibition, PAK1” value in [5] (setting [17]) is given as 3.21%. The “%-inhibition, MET” value in data set [6] (setting [17]) is given as 7%. In [7] (setting [17]), the “%-inhibition … [isoform a]” value is given as 0.258%. Further, the “%-inhibition AKT2” value in [8] (setting [17]) is reported as -2.75%. The “%-inhibition BLK” value in data set [9] (setting [17]) was 10%. In addition, the “%-inhibition, MST2” value in data set [10] (setting [17]) is 1.8%. The “%-inhibition AKT3” value in [11] (setting [17]) is on record as -3.43%. For the same compound, in [12] (setting [17]), the “%-inhibition at 1 µmol/L, MAPKAPK2” value was -7%. Further, the “%-inhibition at 1 µmol/L, CSK” value in [13] (setting [17]) was 5.62%. Besides, the “%-inhibition at 1 µmol/L, RSK1” value in data set [14] (setting [17]) is given as 1.39%. In addition, the “%-inhibition CDC2/CycB1” value in data set [15] (setting [17]) was -0.108%.
